{"source": "paper PMC8053108", "about": "“RPA2 winged-helix domain facilitates UNG-mediated removal of uracil from ssDNA; implications for repair of mutagenic uracil at the replication fork” (Nucleic Acids Research, 2021)", "test_system": "UNG2 or N-terminally truncated versions", "test": "Uracil excision in presence of increasing amounts of purified free WH domain", "type": "biochemical, human", "details": "0.4 nM enzyme, 0-50 μM purified WH domain, 100 nM DNA", "experimental": "3′-FAM-labelled, PAGE-purified oligonucleotide substrates were from Sigma-Aldrich. Unless otherwise indicated, the substrate (25 nt) harboured uracil at position 10 in a polyC sequence to avoid secondary structures (U10-25*: […]-FAM). Double-stranded substrate was generated by annealing (heating followed by slow cooling) U10-25* to a non-labelled complementary oligo (A16-25: […]). All assays were performed at 22°C in 10 mM Tris–HCl pH 7.5, 50 mM NaCl, 1 mM DTT, 0.1 mM EDTA, 0.5 mg/ml BSA.\nVarying amounts of UNG were then added, and the mixtures incubated for 10 min in a water bath. To avoid unspecific interactions and binding of enzyme and DNA to the assay tube surface, low-DNA binding tubes and excess of BSA was used in all reactions. Reactions were quenched and AP sites cleaved in 10% piperidine at 90°C for 20 min. Samples were dried by vacuum centrifugation and suspended in formamide-containing loading buffer. Product and substrate were separated in 12% PAGE/7M urea–0.5× TBE gels, bands visualised in ChemiDoc™ Imager (Bio-Rad) and quantified by Image Lab software (Bio-Rad). Importantly, all assays in which two parameters were compared (e.g. RPA-coated versus naked substrate or WT versus mutated protein) were performed in parallel with the exact same DNA/protein dilutions."}
{"substance": "WH domain: purified RPA2-WH domain, RPA2 residues 172-270", "values": [{"measurement": "effect on uracil excision from naked ss- and dsDNA substrates", "result": "little effect"}, {"measurement": "effect on uracil excision from RPA-bound ss- and dsDNA substrates", "setting": "RPA-bound", "result": "markedly reduced"}]}
